The test system of test [1] is human colonic carcinoma cell-line HT-29. Nature of the test: Adhesion to HT-29 cells. The format is cell-based. The settings on record: for Adhesion to HT-29 cells, in salt solution: HBSS, 30 minutes, mean of at least 40 cells; for Capacity to adhere to human colonic mucosa cells, in words: compared with Lactobacillus plantarum 299v. As for the experimental part: In total 32 L. plantarum strains isolated from human mucosa were tested as to adherence to intestinal epithelial cells of human colonic carcinoma cell-line HT-29 with a mannose-specific binding (method as described by Wold, A, et al, Infection and Immunity, October 1988, p. 2531-2537). Cells of the human adenocarcinoma cell line HT-29 were cultured in Eagle's medium supplemented with 10% fetal calf serum, 2 mM L-glutamine and 50 ig/ml of gentamicin (Sigma Chemical Co., Saint Louis, Mo., USA). A few days after the cells had reached confluence they were detached with EDTA-containing buffer (0.54 mM), washed and suspended in Hank's balanced salt solution (HBSS) at 5×10^6/ml. The bacteria were harvested, washed and suspended in HBSS at 5×10^9/ml (2× an optical density of 1.5 at 597 nm). Cells, bacteria and HBSS were mixed in the ratio 1:1:3 and incubated with end-over-end rotation for 30 minutes at 4EC. The cells were washed once with ice cold PBS and fixed with neutral buffered formalin (Histofix, Histolab, Götebrog, Sweden). The number of bacteria attached to each of at least 40 cells was determined using interference contrast microscopy (500× magnification, Nicon Optophot, with interference contrast equipment, Bergström Instruments, Göteborg, Sweden) and the mean number of bacteria per cell was calculated.

The subject of test [2] is Bacterial flora in caecum. Nature of the test: Bacterial flora in caecum after ischemia/reperfusion injury in mice (viable count). The format is in vivo, Balb/C mice. The settings on record: caecum stool after ischemia/reperfusion. The source says: Fifteen Balb/C mice were divided into five groups (3 mice per group) and fed different combinations of normal food, rose hip powder (rich in tannins) and the tannase positive strain Lactobacillus plantarum 299v. The constituents were mixed with some water to get a mushy consistency. Groups 1 and 2 were given normal mouse food, Group 3 got the normal food supplemented with rose hip powder (1.6 g per day), Group 4 got normal food supplemented with L. plantarum 299v (10^10 bacteria per dose) and Group 5 got normal food supplemented with both the rose hip powder and L. plantarum 299v. The mice were fed once a day for 6-8 days before inducing an ischemia/reperfusion injury. The injury was done according to the following dissection protocol: Mice were given 0.15 ml of Ketamine/Xylazine solution (7.85 mg/ml and 2.57 mg/ml, respectively) subcutaneously for anesthesia. […] 1.0 ml PBS was injected into the peritoneal cavity for fluid resuscitation. […] The abdomen was then closed using a running vicryl 3-0 suture. The animal was allowed to awake from anesthesia and was removed from the warming pad and placed back into the cage. After 4 h and 15 min, the animal was given anesthesia again and tissue and stool samples were obtained in the following order and placed in preweighed tubes: liver tissue, ilium mesentery tissue and cecum stool for bacteriological sampling, and cecum and ilium tissue for colorimetric assay for lipid peroxidaton, and cecum and ilium tissue for histological examination. The samples for bacteriological evaluation were weighed and placed in freezing media and frozen immediately at −70° C. Samples for colorimetric assay (LPO586) were rinsed in PBS, weighed, homogenized, aliquoted and then frozen immediately at −70° C.
Bacteriological evaluation was performed by viable count by anaerobic incubation (BBL Gas Pak Plus, Becton Dickinson and Company, Sparks, Md., USA) on Rogosa-agar (Merck, Darmstadt, Germany) at 37° C. for 3 d, VRBD-agar (Merck, Darmstadt, Germany) at 37° C. for 24 h and Brain heart infusion agar (BHI; Oxoid, Basingstoke, Hampshire, England) at 37° C. for 3 d. Viable count on BHI was also done aerobically.

The nature of test [3]: Screening for tannase activity (breakdown of methylgallate, Osawa and Walsh). Also noted: key to Tannase activity (positive or negative): +: Positive tannase activity is shown as a green to brown coloration of free gallic acid in the cell-suspension after prolonged exposure to oxygen in an alkaline condition. Conditions: for Tannase activity (positive or negative): 24 h incubation with methylgallate at 37° C., visual colour; for Quantitative tannase activity (A440/A620): ratio of A440 after 24 h incubation with methylgallate and A620 of cell-suspension at start; for Tannase activity, in words: where comparative, versus Lactobacillus plantarum 299v. The format is biochemical. The method, then:
The applied method to detect tannase activity has earlier been described by Osawa and Walsh (1993). The detecting principle is that the breakdown of the tannin, methylgallate, is measured by the following procedure:
The test bacterium is cultured anaerobically on MRSagar (Merck, Darmstadt, Germany) for 2 d at 37° C. and then the cells are harvested and suspended in 5 ml 0.9% (w/v) NaCl. The cell-suspension is centrifuged and the cells re-suspended in 10 ml 0.9% NaCl and the absorbance is measured at 620 nm (0.9% NaCl solution as standard). The cell-suspension is diluted until the absorbance is between 0.1 and 0.6 (spectrophotometer, Pharmacia LKB, Novaspec II). After centrifugation, the cells are re-suspended in 1 ml methylgallate-buffer (3.7 g/l methylgallate [Aldrich Chemical Company, Inc., Milwaukee, Wis., USA], 4.5 g/l NaH2PO4, pH=5.0 [sterile filtered]) and the tube is incubated at 37° C. for 24 h. One ml of NaHCO3-buffer (42 g NaHCO3 per litre, pH=8.6) is added and the solution is incubated for 1 h at room temperature, before measurement of the absorbance at 440 nm (NaHCO3-buffer as standard). The colour of the suspension is measured by visual determination.
The colour should be brown or green to be graded as positive tannase activity. A quantitative value of the tannase activity was obtained by the ratio between the absorbance of the cell-suspension (A620; amount of cells) at the start of the incubation with methylgallate versus the absorbance after the 24 h incubation with methylgallate (A440; coloration of free gallic acids after exposure to oxygen in an alkaline condition).

Test [4] concerns ischemia/reperfusion injury. Nature of the test: Lipid peroxidation after ischemia/reperfusion injury in mice (LPO-586 colorimetric assay). The format is in vivo, Balb/C mice. The source says:
Fifteen Balb/C mice were divided into five groups (3 mice per group) and fed different combinations of normal food, rose hip powder (rich in tannins) and the tannase positive strain Lactobacillus plantarum 299v. The constituents were mixed with some water to get a mushy consistency. Groups 1 and 2 were given normal mouse food, Group 3 got the normal food supplemented with rose hip powder (1.6 g per day), Group 4 got normal food supplemented with L. plantarum 299v (10^10 bacteria per dose) and Group 5 got normal food supplemented with both the rose hip powder and L. plantarum 299v. The mice were fed once a day for 6-8 days before inducing an ischemia/reperfusion injury. The injury was done according to the following dissection protocol: Mice were given 0.15 ml of Ketamine/Xylazine solution (7.85 mg/ml and 2.57 mg/ml, respectively) subcutaneously for anesthesia. […] 1.0 ml PBS was injected into the peritoneal cavity for fluid resuscitation. […]
Lipid peroxidation is a well-established mechanism of cellular injury and is used as an indicator of oxidative stress in cells and tissues. […] LPO-586™ is a colorimetric assay designed to quantify MDA and is based on the reaction of a chromogenic reagent, N-methyl-2-phenylindole with MDA at 45° C. One molecule of MDA reacts with two molecules of N-methyl-2-phenylindole to yield a stable chromophore with maximal absorbance at 586 nm.

For the substance “Lactobacillus plantarum 299v, DSM 9843 [Strain 299v]”, in test [1], the “Adhesion to HT-29 cells, in salt solution” value (“Adhesion … in salt solution” for short) is given as 11.7 number of bacteria per cell and the “Adhesion to HT-29 cells, in presence of methyl-mannoside” value (“Adhesion to HT-29 cells, in presence” for short) is 3.4 number of bacteria per cell. In addition, the “Median of viable count, Total aerobes” value in test [2] (BHI agar aerobic) is 4 × 10^9 CFU per a caecal content. Further, the “Median of viable count, Total anaerobes” value in test [2] (BHI agar anaerobic) was 3 × 10^9 CFU per a caecal content. The “Median of viable count, Lactobacilli” value in test [2] (Rogosa-agar) is reported as 2 × 10^9 CFU per a caecal content. Besides, the “Median of viable count, Enterobacteriaceae” value in test [2] (VRBD-agar) is 3 × 10^3 CFU per a caecal content. In addition, in test [3], the “Tannase activity (positive or negative)” value is given as “+” and the “Quantitative tannase activity (A440/A620)” value is 6.2. Further, in test [4] (compared to the positive control (Group 2)), the “MDA (lipid peroxidation), in words” value is on record as “decreased the MDA”. For the same substance, the “Malondialdehyde (MDA) per g colonic tissue [median-value]” value in test [4] (mice fed once a day for 6-8 days before 30 min ischemia, sampled 4 h 15 min after reperfusion, Control B 6.3, uninjured 4.3) came to 5.8.
Consider “Lactobacillus plantarum HEAL 9, DSM 15312”, for which, in test [1], the “Adhesion … in salt solution” value is reported as 20 number of bacteria per cell; the “Capacity to adhere to human colonic mucosa cells, in words” value (“Capacity to adhere” below) is listed as “higher capacity to adhere”; the “Adhesion to HT-29 cells, in presence” value was 2.1 number of bacteria per cell. In test [3], the “Tannase activity (positive or negative)” value was “+”; the “Quantitative tannase activity (A440/A620)” value is on record as 6.4; the “Tannase activity, in words” value is on record as “higher tannase activity”.
With “Lactobacillus plantarum HEAL 19, DSM 15313”, in test [1], the “Adhesion … in salt solution” value was 23 number of bacteria per cell; the “Capacity to adhere” value is “higher capacity to adhere”; the “Adhesion to HT-29 cells, in presence” value is on record as 5.0 number of bacteria per cell. In test [3], the “Tannase activity (positive or negative)” value was “+”; the “Quantitative tannase activity (A440/A620)” value stood at 7.4; the “Tannase activity, in words” value is “higher tannase activity”.
In the case of “Lactobacillus plantarum HEAL 99, DSM 15316”, in test [1], the “Adhesion … in salt solution” value is given as 20 number of bacteria per cell; the “Capacity to adhere” value is listed as “higher capacity to adhere”; the “Adhesion to HT-29 cells, in presence” value is given as 2.0 number of bacteria per cell. Also, in test [3], the “Tannase activity (positive or negative)” value is reported as “+”; the “Quantitative tannase activity (A440/A620)” value is 6.8; the “Tannase activity, in words” value is given as “higher tannase activity”.

Values taken from patent USRE46718E1, “Compositions comprising Lactobacillus plantarum strains in combination with tannin and new Lactobacillus plantarum strains” (Probi AB, priority 2003, dated 2018).
